The source made the active and inactive calls. No cut-off for these calls is given here.
Legend:
[1] = target: T1, Stimulator of interferon genes protein (Mus musculus, UniProt Q3TBT3); assay: Agonist activity at mouse STING expressed in human THP1-Dual cells assessed as fold change in stimulation activity measured after 24 hrs incubation by QUANTI-Luc4 based microplate reader; format: cell-based
T1 sequence (Q3TBT3 whole entry): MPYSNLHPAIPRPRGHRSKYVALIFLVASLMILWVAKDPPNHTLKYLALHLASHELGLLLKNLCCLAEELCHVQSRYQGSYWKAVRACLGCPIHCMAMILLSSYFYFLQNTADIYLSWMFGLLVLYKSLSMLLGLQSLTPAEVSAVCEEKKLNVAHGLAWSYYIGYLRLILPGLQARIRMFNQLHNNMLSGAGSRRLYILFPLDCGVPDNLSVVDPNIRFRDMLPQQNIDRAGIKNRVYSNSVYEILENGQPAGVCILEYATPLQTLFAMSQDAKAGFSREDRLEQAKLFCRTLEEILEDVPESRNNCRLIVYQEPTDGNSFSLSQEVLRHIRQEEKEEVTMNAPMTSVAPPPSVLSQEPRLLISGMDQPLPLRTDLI

[2] = target: T2, Stimulator of interferon genes protein (Homo sapiens, UniProt Q86WV6); assay: Binding affinity to wild type His-tagged STING (unknown origin) measured after 3 hrs incubation by HTRF assay
Target sequence in this assay (Q86WV6 whole entry): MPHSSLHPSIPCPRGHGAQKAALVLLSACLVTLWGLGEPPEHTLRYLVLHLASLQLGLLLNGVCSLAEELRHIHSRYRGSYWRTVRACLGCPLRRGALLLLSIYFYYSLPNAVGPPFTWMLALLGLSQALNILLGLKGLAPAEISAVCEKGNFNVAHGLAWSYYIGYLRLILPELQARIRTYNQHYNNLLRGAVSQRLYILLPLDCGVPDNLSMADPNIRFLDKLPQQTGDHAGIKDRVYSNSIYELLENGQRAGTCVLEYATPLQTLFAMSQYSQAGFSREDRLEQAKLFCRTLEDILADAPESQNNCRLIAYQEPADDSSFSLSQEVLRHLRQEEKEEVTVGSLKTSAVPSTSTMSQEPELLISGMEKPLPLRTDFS

[3] = target: T2, Stimulator of interferon genes protein; assay: Agonist activity at STING R232 mutant (unknown origin) expressed in human THP1-Dual cells assessed as fold change in stimulation activity measured after 24 hrs incubation by QUANTI-Luc4 based microplate reader; format: cell-based
Target sequence in this assay (Q86WV6 whole entry, looked up, change not shown): as the sequence (Q86WV6 whole entry) above

[4] = target: T2, Stimulator of interferon genes protein; assay: Agonist activity at human STING HAQ variant in human THP1-Blue ISG cells assessed as fold change in stimulation activity measured after 24 hrs incubation by QUANTI-Blue based microplate reader; format: cell-based
Target sequence in this assay (Q86WV6 whole entry, looked up, change not shown): as the sequence (Q86WV6 whole entry) above

MC-38 [5] = assay: In vivo antitumor activity against mouse MC-38 cells inoculated in C57BL/6 mouse assessed as complete tumor regression (CR) at 60 mg/kg, po Q3D co-administered with anti-PD1 measured for 15 to 20 days; format: functional; details: time 15-20 day
[6] = Metabolic stability in mouse liver microsomes assessed as half life at 10 uM measured up to 60 mins by LC-MS/MS analysis; format: ADME, Microsome
MC-38 [7] = assay: In vivo antitumor activity against mouse MC-38 cells inoculated in C57BL/6 mouse assessed as as increase in moue survival time at 60 mg/kg, po Q3D measured for 15 to 20 days; format: functional, organism-based; details: time 15-20 day
[8] = Stability of the compound in mouse plasma assessed as half life by LC-MS/MS analysis; format: ADME, cell-free
MC-38 [9] = assay: In vivo antitumor activity against mouse MC-38 cells inoculated in C57BL/6 mouse assessed as complete tumor regression (CR) at 60 mg/kg, po Q3D measured for 15 to 20 days; format: functional, organism-based; details: time 15-20 day
[10] = Stability of the compound in human plasma assessed as half life by LC-MS/MS analysis; format: ADME, cell-free
[11] = Chemical stability of the compound in MeOH/H2O assessed as half life by LC-MS/MS analysis; format: physicochemical
[12] = Metabolic stability in human liver microsomes assessed as half life at 10 uM measured up to 60 mins by LC-MS/MS analysis; format: ADME, Microsome
[13] = Chemical stability of the compound in MeOH/H2O solvent assessed as half life by LC-MS/MS analysis; format: physicochemical
[14] = target: T3, Interferon regulatory factor 3 (Homo sapiens) (UniProt Q14653); assay: Induction of IRF3 phosphorylation in human THP1-Blue ISG cells at 13 to 50 uM measured after 3 hrs by Western blot analysis; format: cell-based; details: filed as agonist, dose 13-50 µM
T3 sequence (whole entry): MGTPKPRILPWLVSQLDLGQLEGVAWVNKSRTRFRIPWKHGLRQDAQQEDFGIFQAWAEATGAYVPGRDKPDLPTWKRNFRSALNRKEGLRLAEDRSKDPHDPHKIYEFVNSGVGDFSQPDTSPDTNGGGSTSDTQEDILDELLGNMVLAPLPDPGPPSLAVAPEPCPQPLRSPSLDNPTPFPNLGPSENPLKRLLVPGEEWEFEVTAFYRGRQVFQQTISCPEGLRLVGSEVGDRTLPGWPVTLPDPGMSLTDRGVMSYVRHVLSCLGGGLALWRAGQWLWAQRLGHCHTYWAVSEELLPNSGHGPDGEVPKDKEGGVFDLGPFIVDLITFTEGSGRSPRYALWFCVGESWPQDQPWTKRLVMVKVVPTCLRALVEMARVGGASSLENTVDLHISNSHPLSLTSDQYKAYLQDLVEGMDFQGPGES

THP-1 [15] = assay: Induction of interferon response in STING knock out human THP-1 cells assessed as fold change in stimulation activity at 13 to 25 uM measured after 24 hrs incubation by QUANTI-Luc4 based microplate reader; format: functional, cell-based; details: dose 13-25 µM
THP-1 [16] = assay: Induction of interferon secretion in human THP-1 cells assessed as IFN-beta level at 13 uM measured after 24 hrs by ELISA; format: functional, cell-based
THP1-Blue ISG = assay: Induction of STING phosphorylation in human THP1-Blue ISG cells at 13 to 50 uM measured after 3 hrs by Western blot analysis; format: cell-based; details: filed as agonist, dose 13-50 µM
[17] = target: T2, Stimulator of interferon genes protein; assay: Agonist activity at human STING in human THP1-Blue ISG cells measured after 24 hrs incubation by QUANTI-Blue based microplate reader; format: cell-based
Target sequence in this assay (Q86WV6 whole entry): as the sequence (Q86WV6 whole entry) above

CCC(CNC(=O)c1sc2cc(OC)c(OC)cc2c1F)C(=O)O (racemic)
EC50 [1]: 15.7 µM | IC50 [2]: 24.6 µM | EC50 [3]: 17.2 µM | EC50 [4]: 4.8 µM

CONC(=O)C(F)(F)CNC(=O)c1sc2cc(OC)c(Br)cc2c1F
EC50 [4]: > 100 µM

COc1cc2sc(C(=O)NCC(C)C(=O)O)c(F)c2cc1Br (configuration not stated)
EC50 [4]: > 100 µM

COc1cc2sc(C(=O)N[C@H](C)CC(=O)O)c(F)c2cc1OC
EC50 [4]: > 100 µM

CONC(=O)CCNC(=O)c1sc2cc(OC)c(OC)cc2c1F
EC50 [4]: 33 µM

COc1cc2sc(C(=O)NCC(C)C(=O)O)c(F)c2cc1OC (racemic)
EC50 [1]: 25.1 µM | IC50 [2]: 30.6 µM | EC50 [3]: 33.1 µM | EC50 [4]: 7.1 µM

CCC(CNC(=O)c1[se]c2cc(OC)c(OC)cc2c1F)C(=O)O (configuration not stated)
EC50 [1]: 12.5 µM | EC50 [3]: 13.3 µM | EC50 [4]: 3.8 µM

C#Cc1c(C(=O)NCCC(=O)O)sc2cc(OC)c(OC)cc12
EC50 [4]: > 100 µM

COc1cc2sc(C(=O)NCC(C)(C)C(=O)O)c(F)c2cc1OC
EC50 [4]: > 100 µM

COc1cc2sc3c(c2cc1OC)C(=O)N(CCC(=O)O)C3=O
Activity (MC-38 [5]): 60% | half-life at 10 µM [6]: > 1 h | EC50 [1]: 25.3 µM | Activity (MC-38 [7]): inactive | half-life [8]: > 1 h | Activity (MC-38 [9]): inactive | half-life [10]: 0.5 h | half-life [11]: 21 h | IC50 [2]: 22.1 µM | half-life at 10 µM [12]: > 1 h | EC50 [3]: 19.6 µM | half-life [13]: 0.35 h | EC50 [4]: 4.5 µM

COc1cc2sc(C(=O)NCCC(=O)O)c(Br)c2cc1OC
EC50 [4]: 47.2 µM

COc1ccc2c(F)c(C(=O)NCCC(=O)O)sc2c1
EC50 [4]: > 100 µM

COc1cc2[se]c(C(=O)NCC(C)C(=O)O)c(F)c2cc1OC (configuration not stated)
EC50 [1]: 27 µM | EC50 [3]: 26.1 µM | EC50 [4]: 5.7 µM

COc1cc2sc(C(=O)N[C@@H](CC(=O)O)C(N)=O)c(F)c2cc1OC
EC50 [4]: > 100 µM

COc1cc2sc(C(=O)NCCCC(=O)O)c(F)c2cc1OC
EC50 [4]: 54.6 µM

CC[C@@H](CNC(=O)c1sc2cc(OC)c(OC)cc2c1F)C(=O)O
EC50 [1]: 45.9 µM | IC50 [2]: 65.5 µM | EC50 [3]: 51.3 µM | EC50 [4]: 11.3 µM

COc1cc2sc(C(=O)NC[C@H](C)C(=O)O)c(F)c2cc1OC
EC50 [1]: 61.2 µM | IC50 [2]: 33.3 µM | EC50 [3]: 58.5 µM | EC50 [4]: 6.2 µM

COc1cc2sc(C(=O)NCCS(N)(=O)=O)c(F)c2cc1OC
EC50 [4]: > 100 µM

COc1cc2sc(C(=O)NCC3(C(=O)O)CC3)c(F)c2cc1OC
EC50 [4]: > 100 µM

COc1cc2sc(C(=O)NCCC(=O)NS(C)(=O)=O)c(F)c2cc1OC
EC50 [4]: > 100 µM

CC[C@H](CNC(=O)c1sc2cc(OC)c(OC)cc2c1F)C(=O)O
Activity [14]: Active | EC50 [1]: 11.9 µM | Activity (THP-1 [15]): inactive | Activity (THP-1 [16]): Active | Activity (THP1-Blue ISG): Active | IC50 [2]: 24.1 µM | EC50 [3]: 12 µM | EC50 [4]: 5.1 µM

CONC(=O)C(C)CNC(=O)c1sc2cc(OC)c(Br)cc2c1F (configuration not stated)
EC50 [4]: > 100 µM

COc1cc2sc(C(=O)NCCC(O)(C(F)(F)F)C(F)(F)F)c(F)c2cc1OC
EC50 [4]: > 100 µM

CCC(CNC(=O)c1sc2cc(OC)c(OC(F)F)cc2c1F)C(=O)O (configuration not stated)
EC50 [4]: > 100 µM

CCC(CNC(=O)c1sc2c(F)c(OC)c(OC)cc2c1F)C(=O)O (configuration not stated)
EC50 [1]: 92.7 µM | IC50 [2]: 75.2 µM | EC50 [3]: 85.9 µM | EC50 [4]: 3.5 µM

COc1cc2sc(C(=O)NCCC(=O)O)c(C)c2cc1OC
EC50 [4]: > 100 µM

CCOc1cc2c(F)c(C(=O)NCCC(=O)O)sc2cc1OC
EC50 [4]: > 100 µM

COc1cc2sc(C(=O)NC[C@@H](C)C(=O)O)c(F)c2cc1OC
EC50 [1]: 27.9 µM | IC50 [2]: 28.7 µM | EC50 [3]: 36.5 µM | EC50 [4]: 4.7 µM

COc1cc2sc(C(=O)NC(C)(C)CC(=O)O)c(F)c2cc1OC
EC50 [4]: > 100 µM

COc1cc2cc(C(=O)NCCC(=O)O)sc2cc1OC
IC50 [2]: > 100 µM | EC50 [17]: > 100 µM

COc1cc2sc(C(=O)NCC(F)(F)C(=O)O)c(F)c2cc1Br
EC50 [4]: > 100 µM

C=Cc1cc2c(F)c(C(=O)NCCC(=O)O)sc2cc1OC
EC50 [4]: > 100 µM

CCC(CNC(=O)c1sc2cc(OC)c(OC)c(F)c2c1F)C(=O)O (configuration not stated)
EC50 [4]: > 100 µM

COc1cc2sc(C(=O)NCCC(=O)O)c(F)c2cc1OC
half-life [11]: > 48 h | IC50 [2]: 49.8 µM | EC50 [17]: 30.3 µM | EC50 [4]: 30.3 µM

COc1cc2sc(C(=O)NCCC(=O)O)c(F)c2cc1F
EC50 [4]: > 100 µM

COc1cc2sc(C(=O)NCC(=O)O)c(F)c2cc1OC
EC50 [4]: > 100 µM

COc1cc2sc(C(=O)NCCB(O)O)c(F)c2cc1OC
EC50 [4]: > 100 µM

COc1cc2sc(C(=O)NCCC(=O)O)c(Cl)c2cc1OC
EC50 [4]: 26.5 µM

COc1cc2sc(C(=O)NCC3(C(=O)O)CCC3)c(F)c2cc1OC
EC50 [1]: 22 µM | IC50 [2]: 31.2 µM | EC50 [3]: 18.4 µM | EC50 [4]: 3.7 µM

COc1cc2sc(C(=O)NCCC(=O)O)c(I)c2cc1OC
EC50 [4]: > 100 µM

CCC(CNC(=O)c1sc2cc(Br)c(OC)cc2c1F)C(=O)O (configuration not stated)
EC50 [1]: > 100 µM | IC50 [2]: > 100 µM | EC50 [3]: > 100 µM | EC50 [4]: 13.2 µM

COc1cc2sc(C(=O)NCC(F)(F)C(=O)O)c(F)c2cc1OC
EC50 [4]: > 100 µM

COc1cc2sc(C(=O)NCCC(=O)O)c(F)c2cc1OC(C)C
EC50 [4]: > 100 µM

COc1cc2sc(C(=O)N[C@@H](C)CC(=O)O)c(F)c2cc1OC
EC50 [4]: > 100 µM

COc1cc2sc(C(=O)NCCC(N)=O)c(F)c2cc1OC
EC50 [4]: > 100 µM

COc1cc2sc(C(=O)NCCc3nnn[nH]3)c(F)c2cc1OC
EC50 [4]: > 100 µM
